From patent US6107070A, “Human manganese superoxide dismutase proteins” (University of Florida, priority 1998, dated 2000)
Substitutions are numbered along the chain they refer to. Where two headings read alike, the source gives them in different places.

Experiments:
[1] = target: T1, human manganese superoxide dismutase (hMn SOD) variant Y34F (Tyr 34 replaced by Phe) (Homo sapiens, UniProt P04179, Y58F); assay: Decay of superoxide catalyzed by Y34F hMnSOD, pulse radiolysis; assay type: biochemical
T1 construct: as a mature protein tagged with an extra Met at the amino terminus; made in house; host or cells: E. coli QC774 (SodA/SodB mutant), pTrc99A
T1 sequence (P04179 25-222 Y58F): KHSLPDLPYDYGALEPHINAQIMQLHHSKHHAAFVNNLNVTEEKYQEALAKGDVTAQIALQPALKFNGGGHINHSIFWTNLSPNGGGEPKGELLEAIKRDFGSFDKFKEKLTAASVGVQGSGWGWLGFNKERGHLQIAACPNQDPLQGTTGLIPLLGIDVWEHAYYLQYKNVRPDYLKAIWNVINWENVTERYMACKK
Description: (§1) Experiments were carried out at the Center for Fast Kinetics Research at the University of Texas at Austin using a 4-Mev van der Graaff accelerator. A single high-dose electron pulse was used to generate superoxide radical anions from oxygen in acqueous solutions containing 10 mM sodium formate as hydroxyl radical scavenger (Schwartz, 1981) and 50 μM EDTA in addition to buffer and enzyme. All pulse radiolysis experiments were carried out at 20 ° C. The dismutation of O2^- was followed spectrophotometrically from its absorbance at 250 nm (ε=2000M^1 cm^1, Rabani and Nielson, 1969) with a path length of 2.5 cm. Progress curves for each set of 6 to 9 experiments were averaged. Exposure to ultraviolet radiation was minimized by opening a mechanical shutter a fraction of a second before each pulse.
The kinetic mechanism of FIG. 8 used to describe the wild-type MnSOD can also describe catalysis by Y34F Mn SOD (FIG. 7), as shown by pulse radiolysis. […] In this stimulation, the breakdown of the enzyme-substrate complex for enzyme in the reduced state, represented by k3 in the scheme of FIG. 8, is much slower for Y34F compared with wild-type, whereas the values of k3 are the same for both enzymes. […] The rate constants in Y34F for actual formation of the dead-end complex itself, k5 and k5 are quite similar to those for wild-type.

[2] = target: T2, human manganese superoxide dismutase (hMn SOD), wild type, SEQ ID NO:2 (Homo sapiens, UniProt P04179); details: cited from earlier work
T2 construct: where it is then cleaved off leaving the mature protein
T2 sequence (P04179 25-222): T1 sequence (P04179 25-222 Y58F) with F34Y

[3] = target: T3, human manganese superoxide dismutase (hMn SOD) variant H30E (Homo sapiens, UniProt P04179, E155Q/H54E); assay: Disproportionation of superoxide by H30E hMnSOD, 20° C.; assay type: biochemical; details: Table 4; pH 9.4, 20° C.
T3 construct: as a mature protein tagged with an extra Met at the amino terminus; made in house
T3 sequence (P04179 25-222 H54E/E155Q): T1 sequence (P04179 25-222 Y58F) with H30E, F34Y, E131Q

[4] = target: T2, human manganese superoxide dismutase (hMn SOD), wild type, SEQ ID NO:2; assay: Decay of superoxide catalyzed by wild-type hMnSOD, pulse radiolysis; assay type: biochemical; details: obtained from Table 3 data and eqs 5-9 of Bull et al. (1991)
Description: as §1

[5] = Table 1, pulse radiolysis, 20° C., pH 9.6 (Guan et al., 1997)
[6] = Table 3, KINSIM fit to pulse radiolysis data, 20° C., pH 9.6
[7] = Table 1, pulse radiolysis, 20° C., pH 9.6 (Hsu et al., 1996)
[8] = Table 2, KINSIM fit of FIG. 8 scheme to pulse radiolysis data, 20° C., pH 9.6

Work on `[O]O` [superoxide] yielded a kcat [1, 5] of 3.3 ms^-1, a kcat /km [1, 5] of 8.7e+08 M⁻¹ s⁻¹ and a k1 [1, 6] of 1000 s⁻¹. For the same molecule, the k2 [1, 6] was 5000 s⁻¹, the k4 [1, 6] was 1000 M⁻¹ s⁻¹ and the k5 [1, 6] was 200 s⁻¹. The k-1 [1, 6] was 2e+09 M⁻¹ s⁻¹, the k-3 [1, 6] was 2e+09 M⁻¹ s⁻¹ and the k-4 [1, 6] was 10000 s⁻¹. The k-5 [1, 6] was 2 × 10^4, the “kcat /km (diffusion controlled)” value ([1]; approximate value) was ~10^9 M^-1 s^-1 and the Km ([1]; obtained from Table 3 data and eqs 5-9 of Bull et al. (1991)) was 4 µM. For the same molecule, the kcat [2, 7] was 40 ms^-1, the kcat /km [2, 7] was 8e+08 M⁻¹ s⁻¹ and the k1 [2, 8] was 2e+09 M⁻¹ s⁻¹. The k3 [2, 8] was 2e+09 M⁻¹ s⁻¹, the k4 [2, 8] was 80000 s⁻¹ and the k-1 [2, 8] was 20000 s⁻¹. For the same molecule, the k-3 [2, 8] was 20000 s⁻¹, the k-4 [2, 8] was 300 M⁻¹ s⁻¹ and the k-5 ([2]; Table 2, KINSIM fit, dead-end complex, 20° C., pH 9.6) was 130 s⁻¹. For the same molecule, the k5 ([2]; Table 2, KINSIM fit, formation of dead-end complex, 20° C., pH 9.6) was 20000 s⁻¹, the k1 [2, 6] was 20000 s⁻¹ and the k3 [2, 6] was 20000 s⁻¹. For the same molecule, the k4 [2, 6] was 300 M⁻¹ s⁻¹, the k5 [2, 6] was 130 s⁻¹ and the k-1 [2, 6] was 2e+09 M⁻¹ s⁻¹. For the same molecule, the k-3 [2, 6] was 2e+09 M⁻¹ s⁻¹, the k-4 [2, 6] was 80000 s⁻¹ and the k-5 [2, 6] was 2 × 10^4. The k2 ([2]; Tables 2 and 3, KINSIM fit of FIG. 8 scheme to pulse radiolysis data, 20° C., pH 9.6) was 80000 s⁻¹, the “kcat /km (diffusion controlled)” value ([2]; approximate value) was ~10^9 M^-1 s^-1 and the “kcat /Km” value ([2]; pH 9.6, 20° C. (Hsu et al., 1996)) was 8e+08 M⁻¹ s⁻¹. For the same molecule, the kcat [3] was 0.052 ms^.1, the “kcat /Km” value [3] was 0.63 μM^.1 S^.1 and the Km [4] was 50 µM.
